According to patent publication US20220125052A1, “Herbicidal Compositions” (SYNGENTA CROP PROTECTION AG, priority 2019, published 2022):

Key:
Assay in all cases: Post-emergence efficacy (B1), glasshouse spray test
Format in all cases: in vivo
[1] = test system: Echinochloa crus-galli (ECHCG); settings: 500 g/Ha, evaluated after 13 days, 100=total damage to plant, 0=no damage to plant
Experimental: (§1) B1 Post-emergence efficacy Seeds of a variety of test species were sown in standard laom-based soil in pots:—Ipomoea hederacea (IPOHE), Euphorbia heterophylla (EPHHL), Chenopodium album (CHEAL), Amaranthus palmeri (AMAPA), Lolium perenne (LOLPE), Digitaria sanguinalis (DIGSA), Eleusine indica (ELEIN), Echinochloa crus-galli (ECHCG), Setaria faberi (SETFA). After cultivation for 14 days (post-emergence) under controlled conditions in a glasshouse (at 24/16° C., day/night; 14 hours light; 65% humidity), the plants were sprayed with an aqueous spray solution derived from the dissolution of the technical active ingredient Formula (I) in a small amount of acetone and a special solvent and emulsifier mixture referred to as IF50 (11.12% Emulsogen EL360 TM+44.44% N-methylpyrrolidone+44.44% Dowanol DPM glycol ether), to create a 50 g/l solution which was then diluted to required concentration using 0.25% or 1% Empicol ESC70 (Sodium lauryl ether sulphate)+1% ammonium sulphate as diluent. The delivery of the aqueous spray solution was via a laboratory track sprayer which delivered the aqueous spray composition at a rate of 200 litres per hectare, using a flat fan nozzle (Teejet 11002VS) and an application volume of 200 litre/ha (at 2 bar). The test plants were then grown in a glasshouse under controlled conditions (at 24/16° C., day/night; 14 hours light; 65% humidity) and watered twice daily. After 13 days the test was evaluated (100=total damage to plant; 0=no damage to plant).

Setaria faberi (SETFA) = settings: 500 g/Ha, evaluated after 13 days, 100=total damage to plant, 0=no damage to plant
Experimental: as §1

[2] = test system: Digitaria sanguinalis (DIGSA); settings: 500 g/Ha, evaluated after 13 days, 100=total damage to plant, 0=no damage to plant
Experimental: as §1

Lolium perenne (LOLPE) = settings: evaluated after 13 days, 100=total damage to plant, 0=no damage to plant
Experimental: as §1

[3] = test system: Amaranthus palmeri (AMAPA); settings: 500 g/Ha, evaluated after 13 days, 100=total damage to plant, 0=no damage to plant
Experimental: as §1

[4] = test system: Chenopodium album (CHEAL); settings: 500 g/Ha, evaluated after 13 days, 100=total damage to plant, 0=no damage to plant
Experimental: as §1

[5] = test system: Euphorbia heterophylla (EPHHL); settings: 500 g/Ha, evaluated after 13 days, 100=total damage to plant, 0=no damage to plant
Experimental: as §1

Eleusine indica (ELEIN) = settings: 500 g/Ha, evaluated after 13 days, 100=total damage to plant, 0=no damage to plant
Experimental: as §1

| SMILES | Control of weed species after post-emergence application: ECHCG [1] | Control of weed species after post-emergence application: SETFA (Setaria faberi (SETFA)) | Control of weed species after post-emergence application: DIGSA [2] | Control of weed species after post-emergence application: LOLPE (Lolium perenne (LOLPE); 500 g/Ha) | pest or weed control at 500 g/ha (Lolium perenne (LOLPE); Lolium perenne, 312 h, read-out: Control of weed species after post-emergence application: LOLPE) [%] | Control of weed species after post-emergence application: AMAPA [3] | Control of weed species after post-emergence application: CHEAL [4] | Control of weed species after post-emergence application: EPHHL [5] | Control of weed species after post-emergence application: ELEIN (Eleusine indica (ELEIN)) |
| --- | --- | --- | --- | --- | --- | --- | --- | --- | --- |
| Cl.N[C@@H](CCC[n+]1ccc(-c2ncccn2)cn1)C(=O)O.[Cl-] [Compound 1.030, [(1S)-1-carboxy-4-(4-pyrimidin-2-ylpyridazin-1-ium-1-yl)butyl]-ammonium dichloride] | 100 | 100 | 100 |  |  |  |  |  |  |
| O=C(O)CC[n+]1ccc(-c2ncccn2)cn1.[Cl-] [Compound 1.010, 3-(4-pyrimidin-2-ylpyridazin-1-ium-1-yl)propanoic acid chloride] |  |  |  | 90 |  |  |  |  |  |
| O=C(O)CC[n+]1ccc(-c2ncccn2)cn1 [Compound 1.023, 3-(4-pyrimidin-2-ylpyridazin-1-ium-1-yl)propanoic acid 2,2,2-trifluoroacetate] |  |  |  |  | 90 |  |  |  |  |
| O=C(O)CC[n+]1ccc(-c2cccnn2)cn1.[Cl-] [Compound 1.027, 3-(4-pyridazin-3-ylpyridazin-1-ium-1-yl)propanoic acid chloride] | 100 | 100 | 100 |  |  | 100 | 100 | 100 |  |
| O=C(O)CC[n+]1ccc(-c2ncccn2)cn1.[Br-] [Compound 1.021, 3-(4-pyrimidin-2-ylpyridazin-1-ium-1-yl)propanoic acid bromide] | 100 | 100 | 100 |  |  |  |  | 100 | 100 |
